ChEMBL document CHEMBL2163268, “Structure-based design of a novel series of potent, selective inhibitors of the class I phosphatidylinositol 3-kinases” (J Med Chem, 2012)

Experiments:
in vitro = settings: rat, liver microsomes
[1] = target: Phosphatidylinositol 4,5-bisphosphate 3-kinase catalytic subunit gamma isoform (Homo sapiens, UniProt P48736); test: biochemical
[2] = target: Phosphatidylinositol 4,5-bisphosphate 3-kinase catalytic subunit beta isoform (Homo sapiens, UniProt P42338); test: biochemical
[3] = target: Phosphatidylinositol 4,5-bisphosphate 3-kinase catalytic subunit alpha isoform (Homo sapiens, UniProt P42336); test: biochemical
[4] = target: Serine/threonine-protein kinase B-raf (Homo sapiens, UniProt P15056, V600E)
[5] = target: T1, Phosphatidylinositol 4,5-bisphosphate 3-kinase catalytic subunit delta isoform (Homo sapiens, UniProt O00329); test: biochemical
T1 sequence (O00329 whole entry): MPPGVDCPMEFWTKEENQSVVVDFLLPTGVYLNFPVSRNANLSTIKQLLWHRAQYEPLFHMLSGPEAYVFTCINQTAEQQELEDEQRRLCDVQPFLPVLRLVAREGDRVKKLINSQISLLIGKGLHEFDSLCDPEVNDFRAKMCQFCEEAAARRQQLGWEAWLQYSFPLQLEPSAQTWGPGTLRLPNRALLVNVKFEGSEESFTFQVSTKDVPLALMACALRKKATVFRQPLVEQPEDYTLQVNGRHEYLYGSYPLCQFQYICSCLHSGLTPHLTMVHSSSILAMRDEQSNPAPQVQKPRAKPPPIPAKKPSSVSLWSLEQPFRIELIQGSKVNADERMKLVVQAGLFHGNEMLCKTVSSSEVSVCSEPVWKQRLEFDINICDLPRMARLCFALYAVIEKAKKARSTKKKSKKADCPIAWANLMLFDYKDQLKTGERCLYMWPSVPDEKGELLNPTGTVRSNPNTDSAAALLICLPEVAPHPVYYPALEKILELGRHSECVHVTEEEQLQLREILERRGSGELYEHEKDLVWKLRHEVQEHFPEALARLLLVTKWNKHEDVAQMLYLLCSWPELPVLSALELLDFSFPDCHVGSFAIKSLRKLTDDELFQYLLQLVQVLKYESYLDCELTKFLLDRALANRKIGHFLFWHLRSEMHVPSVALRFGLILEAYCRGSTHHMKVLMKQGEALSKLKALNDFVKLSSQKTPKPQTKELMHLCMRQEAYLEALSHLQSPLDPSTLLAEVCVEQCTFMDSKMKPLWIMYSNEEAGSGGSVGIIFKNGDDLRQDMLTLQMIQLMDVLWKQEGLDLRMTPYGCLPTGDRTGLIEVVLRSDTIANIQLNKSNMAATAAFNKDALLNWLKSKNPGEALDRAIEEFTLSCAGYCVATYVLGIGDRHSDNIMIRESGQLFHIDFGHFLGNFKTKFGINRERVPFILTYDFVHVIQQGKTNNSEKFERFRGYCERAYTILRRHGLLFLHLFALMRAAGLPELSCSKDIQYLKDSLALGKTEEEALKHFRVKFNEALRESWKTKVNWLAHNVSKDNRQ

[6] = target: Serine/threonine-protein kinase mTOR (Homo sapiens, UniProt P42345)

Sequence of Phosphatidylinositol 4,5-bisphosphate 3-kinase catalytic subunit beta isoform (P42338 whole entry, canonical isoform): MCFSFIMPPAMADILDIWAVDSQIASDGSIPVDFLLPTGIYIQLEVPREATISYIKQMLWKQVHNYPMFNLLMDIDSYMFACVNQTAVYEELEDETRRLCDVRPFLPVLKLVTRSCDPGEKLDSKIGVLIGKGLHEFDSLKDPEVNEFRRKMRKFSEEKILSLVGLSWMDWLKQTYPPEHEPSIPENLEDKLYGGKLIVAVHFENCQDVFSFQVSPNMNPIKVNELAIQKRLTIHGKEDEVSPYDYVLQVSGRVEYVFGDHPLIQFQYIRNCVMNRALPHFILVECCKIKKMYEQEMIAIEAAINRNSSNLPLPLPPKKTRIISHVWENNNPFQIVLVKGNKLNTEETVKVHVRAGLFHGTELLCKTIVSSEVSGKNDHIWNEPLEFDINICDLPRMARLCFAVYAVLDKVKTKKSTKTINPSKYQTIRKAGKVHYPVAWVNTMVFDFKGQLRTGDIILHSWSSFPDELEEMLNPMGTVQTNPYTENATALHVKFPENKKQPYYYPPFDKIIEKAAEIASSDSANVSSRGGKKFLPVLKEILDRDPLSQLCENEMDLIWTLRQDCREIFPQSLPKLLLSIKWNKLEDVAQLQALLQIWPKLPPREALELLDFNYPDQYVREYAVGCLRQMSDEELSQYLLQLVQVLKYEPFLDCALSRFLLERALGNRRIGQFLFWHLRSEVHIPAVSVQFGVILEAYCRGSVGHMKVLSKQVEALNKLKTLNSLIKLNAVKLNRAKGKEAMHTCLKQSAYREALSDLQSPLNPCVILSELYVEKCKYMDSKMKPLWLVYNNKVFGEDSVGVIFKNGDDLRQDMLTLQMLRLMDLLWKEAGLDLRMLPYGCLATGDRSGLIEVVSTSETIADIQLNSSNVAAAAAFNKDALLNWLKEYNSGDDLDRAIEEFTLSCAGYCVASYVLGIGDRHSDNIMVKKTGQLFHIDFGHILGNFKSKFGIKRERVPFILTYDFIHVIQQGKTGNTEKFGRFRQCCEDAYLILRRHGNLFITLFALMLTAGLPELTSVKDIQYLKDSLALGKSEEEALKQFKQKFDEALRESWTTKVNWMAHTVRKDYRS
Sequence of Phosphatidylinositol 4,5-bisphosphate 3-kinase catalytic subunit alpha isoform (P42336 whole entry, canonical isoform): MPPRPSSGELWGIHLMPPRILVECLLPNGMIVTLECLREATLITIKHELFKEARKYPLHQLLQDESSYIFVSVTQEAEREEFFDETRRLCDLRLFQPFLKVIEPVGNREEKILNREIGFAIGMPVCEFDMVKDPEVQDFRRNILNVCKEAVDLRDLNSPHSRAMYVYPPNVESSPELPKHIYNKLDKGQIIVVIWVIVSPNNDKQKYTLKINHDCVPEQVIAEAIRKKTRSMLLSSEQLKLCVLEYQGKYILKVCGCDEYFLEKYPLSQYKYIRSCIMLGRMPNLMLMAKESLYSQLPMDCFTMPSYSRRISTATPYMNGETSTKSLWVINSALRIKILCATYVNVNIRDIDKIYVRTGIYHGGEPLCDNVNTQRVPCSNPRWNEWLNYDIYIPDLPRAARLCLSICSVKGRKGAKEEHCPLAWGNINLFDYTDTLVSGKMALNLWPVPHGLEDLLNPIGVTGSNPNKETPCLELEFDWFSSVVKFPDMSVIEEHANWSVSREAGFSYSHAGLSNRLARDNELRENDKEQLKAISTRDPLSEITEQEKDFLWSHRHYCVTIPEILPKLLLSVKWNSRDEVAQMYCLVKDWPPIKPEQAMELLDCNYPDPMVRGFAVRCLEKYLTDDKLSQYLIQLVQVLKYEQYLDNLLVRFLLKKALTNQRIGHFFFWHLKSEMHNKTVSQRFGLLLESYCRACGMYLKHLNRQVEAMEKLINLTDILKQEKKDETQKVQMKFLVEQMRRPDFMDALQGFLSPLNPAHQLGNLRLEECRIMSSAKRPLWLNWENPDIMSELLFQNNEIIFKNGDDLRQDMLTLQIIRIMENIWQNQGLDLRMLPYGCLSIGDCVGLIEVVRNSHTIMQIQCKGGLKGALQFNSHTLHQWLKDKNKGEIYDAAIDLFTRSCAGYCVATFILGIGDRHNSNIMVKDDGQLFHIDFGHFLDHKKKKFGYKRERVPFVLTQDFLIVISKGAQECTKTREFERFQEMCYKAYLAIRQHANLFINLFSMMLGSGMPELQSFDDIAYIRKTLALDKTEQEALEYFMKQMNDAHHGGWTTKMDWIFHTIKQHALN
Sequence of Phosphatidylinositol 4,5-bisphosphate 3-kinase catalytic subunit gamma isoform (P48736 whole entry, canonical isoform): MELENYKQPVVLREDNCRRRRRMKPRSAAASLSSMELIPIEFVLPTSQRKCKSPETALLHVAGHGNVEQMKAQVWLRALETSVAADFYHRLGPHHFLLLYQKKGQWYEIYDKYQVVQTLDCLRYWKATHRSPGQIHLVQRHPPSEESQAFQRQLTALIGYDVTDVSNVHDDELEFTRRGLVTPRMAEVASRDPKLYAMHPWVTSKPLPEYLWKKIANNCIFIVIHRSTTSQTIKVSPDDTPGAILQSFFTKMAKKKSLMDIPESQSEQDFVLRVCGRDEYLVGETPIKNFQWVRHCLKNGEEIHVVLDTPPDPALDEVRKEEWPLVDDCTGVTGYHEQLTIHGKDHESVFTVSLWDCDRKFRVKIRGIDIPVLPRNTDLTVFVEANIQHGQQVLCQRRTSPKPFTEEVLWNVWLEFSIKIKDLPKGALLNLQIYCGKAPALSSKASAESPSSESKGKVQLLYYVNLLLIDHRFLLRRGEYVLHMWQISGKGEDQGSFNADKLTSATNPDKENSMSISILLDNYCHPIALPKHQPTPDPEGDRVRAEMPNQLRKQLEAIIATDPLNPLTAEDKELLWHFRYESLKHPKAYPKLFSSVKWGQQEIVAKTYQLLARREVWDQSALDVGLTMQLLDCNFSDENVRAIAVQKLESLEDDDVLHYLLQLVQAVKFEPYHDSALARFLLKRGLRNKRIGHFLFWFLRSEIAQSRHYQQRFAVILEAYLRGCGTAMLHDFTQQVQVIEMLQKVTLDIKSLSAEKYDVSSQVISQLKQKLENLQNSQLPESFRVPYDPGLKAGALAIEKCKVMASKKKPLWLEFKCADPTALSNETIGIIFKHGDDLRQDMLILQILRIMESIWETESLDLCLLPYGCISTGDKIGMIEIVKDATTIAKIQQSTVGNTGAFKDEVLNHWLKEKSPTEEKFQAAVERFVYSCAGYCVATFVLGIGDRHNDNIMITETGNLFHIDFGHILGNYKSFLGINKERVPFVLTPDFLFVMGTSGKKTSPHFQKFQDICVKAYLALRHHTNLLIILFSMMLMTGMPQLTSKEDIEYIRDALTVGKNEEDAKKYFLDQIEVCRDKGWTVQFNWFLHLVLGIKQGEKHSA
Sequence of Serine/threonine-protein kinase B-raf (P15056 2-766 V600E limits assumed): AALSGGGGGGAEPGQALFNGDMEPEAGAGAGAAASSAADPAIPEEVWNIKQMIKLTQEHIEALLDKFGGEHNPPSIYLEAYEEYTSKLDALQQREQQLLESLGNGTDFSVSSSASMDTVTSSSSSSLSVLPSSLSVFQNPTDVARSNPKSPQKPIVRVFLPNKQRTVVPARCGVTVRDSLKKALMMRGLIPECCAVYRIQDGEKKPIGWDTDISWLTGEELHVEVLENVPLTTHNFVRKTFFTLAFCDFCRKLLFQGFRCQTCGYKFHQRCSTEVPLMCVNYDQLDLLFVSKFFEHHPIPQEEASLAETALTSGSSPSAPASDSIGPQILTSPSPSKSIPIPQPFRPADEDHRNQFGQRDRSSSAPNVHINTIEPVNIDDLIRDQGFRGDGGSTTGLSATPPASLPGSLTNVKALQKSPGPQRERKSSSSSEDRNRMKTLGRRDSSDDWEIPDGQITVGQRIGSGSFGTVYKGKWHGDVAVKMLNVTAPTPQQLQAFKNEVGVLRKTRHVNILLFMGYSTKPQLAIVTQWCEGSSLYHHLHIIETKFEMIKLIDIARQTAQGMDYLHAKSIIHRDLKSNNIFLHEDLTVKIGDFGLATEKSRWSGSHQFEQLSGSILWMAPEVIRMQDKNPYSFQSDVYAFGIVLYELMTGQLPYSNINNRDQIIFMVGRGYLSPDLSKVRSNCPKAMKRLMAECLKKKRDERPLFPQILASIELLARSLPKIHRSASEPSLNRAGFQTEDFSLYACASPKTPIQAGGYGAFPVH

| SMILES | microsomal CLint (in vitro) [µL/min/mg] | Ki [1] [nM] | Ki [2] [nM] | Ki [3] [nM] | IC50 [4] [nM] | Ki [5] [nM] | IC50 [6] [nM] |
| --- | --- | --- | --- | --- | --- | --- | --- |
| Cc1nc(NCC#N)nc(-n2c(Nc3cccc(O)c3)nc3ccccc32)n1 | 394 | 69 | 43 | 16 | 1200 | 11 |  |
| COc1ccc(Nc2ncc(CN3CCCN(S(C)(=O)=O)CC3)cc2-c2nc(C)nc(N)n2)cn1 | 242 | 46 | 61 | 33 |  | 21 | > 10000 |
| COc1ccc(Nc2ncc(Cc3ccccc3)cc2-c2nc(C)nc(N)n2)cn1 | 62 | 11 | 48 | 59 |  | 15 |  |
| COC(=O)N1CCN(Cc2cnc(Nc3ccc(OC)nc3)c(-c3nc(C)nc(N)n3)c2)CC1 | 20 | 18 | 18 | 94 |  | 6 | 3700 |
| COc1ccc(Nc2ncc(CN3CCN(C(=O)N(C)C)CC3)cc2-c2nc(C)nc(N)n2)cn1 | 17 | 8 | 16 | 84 |  | 3 | 1400 |
| COc1ccc(Nc2ncc(CN3CCN(S(=O)(=O)N(C)C)CC3)cc2-c2nc(C)nc(N)n2)cn1 | 73 | 9 | 7 |  |  | 6 |  |
| COc1ccc(Nc2nccnc2-c2cc(N)nc(C)n2)cn1 | 72 | 58 | 130 | 120 | > 1000 | 130 |  |
| COc1ccc(Nc2ncc(Cl)cc2-c2nc(C)nc(N)n2)cn1 | 58 | 40 | 38 | 290 |  | 39 |  |
| COc1ccc(Nc2ncc(Br)cc2-c2nc(C)nc(N)n2)cn1 | 111 | 22 | 75 |  |  | 92 |  |
| COc1ccc(Nc2ncc(C)cc2-c2nc(C)nc(N)n2)cn1 | 243 | 54 | 86 |  |  | 110 | > 10000 |
| COc1cnc(Nc2ccc(OC)nc2)c(-c2nc(C)nc(N)n2)c1 | 86 | 9 | 15 |  |  | 7 |  |
| COc1ccc(Nc2ncc(CO)cc2-c2nc(C)nc(N)n2)cn1 | 43 | 24 | 56 |  |  | 20 |  |
| COCc1cnc(Nc2ccc(OC)nc2)c(-c2nc(C)nc(N)n2)c1 | 58 | 9 | 20 | 49 |  | 10 | > 10000 |

Other lines, results leading:

| microsomal CLint (in vitro) [µL/min/mg] | Ki [1] [nM] | Ki [2] [nM] | Ki [3] [nM] | IC50 [4] [nM] | Ki [5] [nM] | IC50 [6] [nM] | SMILES |
| --- | --- | --- | --- | --- | --- | --- | --- |
| 21 | 30 | 13 | 73 |  | 13 | > 10000 | COc1ccc(Nc2ncc(CN3CCS(=O)(=O)CC3)cc2-c2nc(C)nc(N)n2)cn1 |
| 37 | 210 | 65 |  |  | 60 |  | COc1ccc(Nc2ncc(CN3CCCC3)cc2-c2nc(C)nc(N)n2)cn1 |
| 51 | 80 | 11 |  |  | 19 |  | COc1ccc(Nc2ncc(CN3CCCCC3)cc2-c2nc(C)nc(N)n2)cn1 |
| 31 | 17 | 7 |  |  | 18 |  | COc1ccc(Nc2ncc(CN3CCOCC3)cc2-c2nc(C)nc(N)n2)cn1 |
| 23 | 110 | 41 |  |  | 63 |  | COc1ccc(Nc2ncc(CN3CCC(O)CC3)cc2-c2nc(C)nc(N)n2)cn1 |
| 20 | 100 | 59 |  |  | 51 |  | COc1ccc(Nc2ncc(CN3CC[C@@H](CO)C3)cc2-c2nc(C)nc(N)n2)cn1 |
| 35 | 200 | 17 |  |  | 27 |  | COc1ccc(Nc2ncc(CN3CCNCC3)cc2-c2nc(C)nc(N)n2)cn1 |
| 48 | 130 | 44 |  |  | 34 |  | COc1ccc(Nc2ncc(CN3CCN(C)CC3)cc2-c2nc(C)nc(N)n2)cn1 |
